These results are taken from ChEMBL document CHEMBL3232731, “Diterpene glycosides and polyketides from Xylotumulus gibbisporus” (J Nat Prod, 2014).

For series [1], the system named is RAW264.7. Briefly: Antiinflammatory activity in mouse RAW264.7 cells assessed as inhibition of LPS-induced nitric oxide production by spectrophotometric analysis. It counts as functional, cell-based.
Series [2] deals with RAW264.7. The series is described as follows: Cytotoxicity against mouse RAW264.7 cells by Alamar Blue assay. It counts as cell-based.
Series [3] has as its system Candida albicans. The series is described as follows: Antifungal activity against Candida albicans ATCC 18804 by NCCLS method. Type of series: functional.
Series [4] deals with Candida albicans. The series is described as follows: Antifungal activity against Candida albicans ATCC MYA-2876 by NCCLS method. Type of series: functional.
Another series relates to Saccharomyces cerevisiae. Briefly: Antifungal activity against Saccharomyces cerevisiae ATCC 2345 by NCCLS method. It counts as functional.

SMILES strings stand for the structures. In brackets after ≈: the same amount, converted by molar mass.

Broadly, the IC50 is the midpoint of a concentration-inhibition curve. For the compound `CO[C@H]1[C@@H](O)[C@H](O)[C@H](OC[C@@]23C[C@@H]4[C@H](C)CC[C@H]4[C@@]4(C=O)C[C@@H]2C(=O)C(=C(C)C)[C@@]34C(=O)O)O[C@@H]1C`, in the series on RAW264.7 [1], the IC50 worked out at 327 µM. The Activity result in the series with RAW264.7 [2] is reported as “Non-toxic”.
For `N=C(NCCC[C@H](N)C(=O)O)N[N+](=O)[O-]` [NITROARGININE], the IC50 in the series with RAW264.7 [1] amounted to 146 µM.
`N=C(N)NN` [PIMAGEDINE]: in the series on RAW264.7 [1], the IC50 amounted to 22.3 µM.
The term MIC denotes the smallest concentration in the dilution series that meets the test's criterion for growth inhibition. High values mean weaker potency, low ones greater potency. Consider `CO[C@H]1[C@@H](O)[C@H](O)[C@H](OC[C@@]23C[C@@H]4[C@H](C)CC[C@H]4[C@@]4(C=O)CC2C=C(C(C)C)[C@@]34C(=O)O)O[C@@H]1C` [SORDARIN], for which the MIC stood at 64 µg/mL (≈ 130 µM) in the series on Candida albicans [3], 32 µg/mL (≈ 65 µM) against Candida albicans [4] and 32 µg/mL (≈ 65 µM) with Saccharomyces cerevisiae. The IC50 in the series on RAW264.7 [1] stood at 157 µM. Further, the Activity result in the series on RAW264.7 [2] is reported as “Non-toxic”.
